Legend:
YAP = conditions: mouse models of YAP-driven tumorigenesis; cited from earlier work
[1] = tested on: NF2 mutant mesothelioma cell lines; conditions: NF2 mutant mesothelioma cell lines (but not WT mesothelioma); cited from earlier work
[2] = tested on: YAP/TAZ-TEAD transcription; assay: Reporter gene assay for measuring the inhibition of YAP/TAZ-TEAD transcription (TEAD-responsive element luciferase reporter in Hek293T cells); format: cell-based; conditions: Homo sapiens, HEK-293T, 24 hours incubation
Method in brief: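 Percent inhibition, scaled between vehicle (0%) and a positive control inhibitor (100%), came from SteadyLite luciferase signal after 24 h compound exposure at 37 °C/5% CO2. Cells: Hek293T transiently carrying a TEAD-responsive luciferase reporter; EC50 derived.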

NCI-H226 = assay: Mesothelioma cell line proliferation assay (ATPlite), NCI-H226; format: cell-based; conditions: Homo sapiens, 144 h; NCI-H226 cells, 6 days, ATPlite cell viability
Method in brief: (§1)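 Mesothelioma cells seeded at 1500 cells/well in RPMI 1640 with 10% FBS, incubated overnight, then treated with compound dose-response in DMSO for 6 days at 37° C, 5% CO2. Viability read by ATPlite luminescence; percent inhibition used to derive EC50.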

H2452 = assay: Mesothelioma cell line proliferation assay, H2452; format: cell-based; conditions: Homo sapiens, NCI-H2452; H2452 cells
NCI-H2052 = assay: Mesothelioma cell line proliferation assay (ATPlite), NCI-H2052; format: cell-based; conditions: NCI-H2052 cells, 6 days, ATPlite cell viability
Method in brief: as §1

| EC50 [2] [nM] | EC50 (NCI-H226) [nM] | EC50 (H2452) [nM] | EC50 (NCI-H2052; Homo sapiens, NCI-H2052, 144 h) [nM] | EC50 (NCI-H2052) [nM] | Compound | suppression of the oncogenic activity of YAP (YAP) | sensitivity of YAP-TEAD transcription [1] | sensitivity of viability [1] |
| --- | --- | --- | --- | --- | --- | --- | --- | --- |
| < 1000 | > 10000 | > 10000 |  |  | CNS(=O)(=O)CCNc1ccc(-c2cccc(F)c2)cc1-c1ccn(C)n1 [compound 119, 2-((3′-fluoro-3-(1-methyl-1H-pyrazol-3-yl)-[1,1′-biphenyl]-4-yl)amino)-N-methylethane-1-sulfonamide] |  |  |  |
| < 1000 | 1000 to 10000 | > 10000 |  |  | CNS(=O)(=O)CCNc1ccc(-c2ccc(C(F)(F)F)cc2)cc1-c1ccn(Cc2cccnc2)n1 [compound 087, N-methyl-2-((3-(1-(pyridin-3-ylmethyl)-1H-pyrazol-3-yl)-4′-(trifluoromethyl)-[1,1′-biphenyl]-4-yl)amino)ethane-1-sulfonamide] |  |  |  |
| < 1000 | 1000 to 10000 | > 10000 |  |  | CNS(=O)(=O)CCNc1ccc(-c2ccc(C(F)(F)F)cc2)cc1-c1ccn(C)n1 [compound 118, N-methyl-2-((3-(1-methyl-1H-pyrazol-3-yl)-4′-(trifluoromethyl)-[1,1′-biphenyl]-4-yl)amino)ethane-1-sulfonamide] |  |  |  |
| < 1000 | 1000 to 10000 | > 10000 |  |  | CNS(=O)(=O)CCNc1ccc(-c2ccc(F)c(F)c2)cc1-c1ccn(C)n1 [compound 124] |  |  |  |
| < 1000 | < 1000 |  | 1000 to 10000 |  | C=CC(=O)NCc1cnc(C2CCC(F)(F)CC2)cc1-c1ccn(C(F)F)n1 [Cpd. No. 223, N-((6-(4,4-difluorocyclohexyl)-4-(1-(difluoromethyl)-1H-pyrazol-3-yl)pyridin-3-yl)methyl)acrylamide] |  |  |  |
| < 1000 | < 1000 |  | > 10000 |  | C=CC(=O)NCc1cc(C2CCC(F)(F)CC2)cc(-c2ccn(C(F)F)n2)n1 [Cpd. No. 228, N-((4-(4,4-difluorocyclohexyl)-6-(1-(difluoromethyl)-1H-pyrazol-3-yl)pyridin-2-yl)methyl)acrylamide] |  |  |  |
| < 1000 | > 10000 | > 10000 |  |  | CNS(=O)(=O)CCNc1ccc(-c2ccc(F)cc2)cc1-c1ccn(C)n1 [compound 117, 2-((4′-fluoro-3-(1-methyl-1H-pyrazol-3-yl)-[1,1′-biphenyl]-4-yl)amino)-N-methylethane-1-sulfonamide] |  |  |  |
| < 1000 | < 1000 |  | < 1000 |  | C=CC(=O)NCc1ccc(-c2cccc(F)c2)cc1-c1ccn(C)n1 [compound 142, N-((3′-fluoro-3-(1-methyl-1H-pyrazol-3-yl)-[1,1′-biphenyl]-4-yl)methyl)acrylamide] |  |  |  |
| < 1000 | 1000 to 10000 | > 10000 |  |  | CNS(=O)(=O)CCNc1ccc(-c2ccc(F)cc2)cc1-c1ccn(Cc2cccnc2)n1 [compound 086, 2-((4′-fluoro-3-(1-(pyridin-3-ylmethyl)-1H-pyrazol-3-yl)-[1,1′-biphenyl]-4-yl)amino)-N-methylethane-1-sulfonamide] |  |  |  |
| < 1000 | < 1000 |  | < 1000 |  | C=CC(=O)NCc1ccc(N2CCC(F)(F)CC2)cc1-c1ccn(C)n1 [compound 182, N-(4-(4,4-difluoropiperidin-1-yl)-2-(1-methyl-1H-pyrazol-3-yl)benzyl)acrylamide] |  |  |  |
| < 1000 | < 1000 |  | 1000 to 10000 |  | C=CC(=O)NCc1ccc(-c2ccc(F)cc2)cc1-c1nnn(C(F)F)n1 [compound 190, N-((3-(2-(difluoromethyl)-2H-tetrazol-5-yl)-4′-fluoro-[1,1′-biphenyl]-4-yl)methyl)acrylamide] |  |  |  |
| < 1000 | < 1000 |  | < 1000 |  | C=CC(=O)NCc1ccc(-c2ccc(F)cc2)cc1-c1ccn(C2CC2)n1 [compound 166, N-((3-(1-cyclopropyl-1H-pyrazol-3-yl)-4′-fluoro-[1,1′-biphenyl]-4-yl)methyl)acrylamide] |  |  |  |
| < 1000 | < 1000 |  | < 1000 |  | C=CC(=O)NCc1ccc(-c2ccc(C(F)(F)F)cc2)cc1-c1ccn(C(F)F)n1 [compound 172, N-((3-(1-(difluoromethyl)-1H-pyrazol-3-yl)-4′-(trifluoromethyl)-[1,1′-biphenyl]-4-yl)methyl)acrylamide] |  |  |  |

Further lines, the compound ahead of its results:

| Compound | EC50 [2] [nM] | EC50 (NCI-H226) [nM] | EC50 (H2452) [nM] | EC50 (NCI-H2052; Homo sapiens, NCI-H2052, 144 h) [nM] | EC50 (NCI-H2052) [nM] | suppression of the oncogenic activity of YAP (YAP) | sensitivity of YAP-TEAD transcription [1] | sensitivity of viability [1] |
| --- | --- | --- | --- | --- | --- | --- | --- | --- |
| verteporfin |  |  |  |  |  | significantly suppressed the oncogenic activity of YAP | sensitive | sensitive |
| CNS(=O)(=O)CCNc1ccc(-c2ccc(F)c(F)c2)cc1-c1ccn(Cc2cccnc2)n1 [compound 093, 2-((3′,4′-difluoro-3-(1-(pyridin-3-ylmethyl)-1H-pyrazol-3-yl)-[1,1′-biphenyl]-4-yl)amino)-N-methylethane-1-sulfonamide] | < 1000 | < 1000 | > 10000 |  |  |  |  |  |
| C=CC(=O)NCc1cc(-c2ccc(F)cc2)cc(-c2ccn(C(F)F)n2)c1 [compound 174, N-((5-(1-(difluoromethyl)-1H-pyrazol-3-yl)-4′-fluoro-[1,1′-biphenyl]-3-yl)methyl)acrylamide] | < 1000 | < 1000 |  | 1000 to 10000 |  |  |  |  |
| C=CC(=O)NCc1cnc(-c2ccc(F)cc2)cc1-n1nnc(C)n1 [Cpd. No. 249, N-((6-(4-fluorophenyl)-4-(5-methyl-2H-tetrazol-2-yl)pyridin-3-yl)methyl)acrylamide] | < 1000 | < 1000 |  | 1000 to 10000 |  |  |  |  |
| C=CC(=O)NCc1ccc(-c2ccc(F)cc2)cc1-c1ccn(CCOC)n1 [compound 149, N-((4′-fluoro-3-(1-(2-methoxyethyl)-1H-pyrazol-3-yl)-[1,1′-biphenyl]-4-yl)methyl)acrylamide] | < 1000 | < 1000 |  | < 1000 |  |  |  |  |
| C=CC(=O)N1CCC(c2cnc(-c3ccc(F)cc3)cc2-c2ccn(C(F)F)n2)C1 (stereo not drawn) [Cpd. No. 262, 1-(3-(4-(1-(difluoromethyl)-1H-pyrazol-3-yl)-6-(4-fluorophenyl)pyridin-3-yl)pyrrolidin-1-yl)prop-2-en-1-one] | < 1000 | < 1000 |  |  | 1000 to 10000 |  |  |  |
| C=CC(=O)NCc1ccc([C@H]2CC[C@@H](C(F)(F)F)CC2)cc1-c1ccn(C)n1 [compound 179, cis-N-(2-(1-methyl-1H-pyrazol-3-yl)-4-(4-(trifluoromethyl)cyclohexyl)benzyl)acrylamide] | < 1000 | < 1000 |  | < 1000 |  |  |  |  |
| C=CC(=O)NCc1ccc(-c2ccc(F)cc2F)cc1-c1ccn(C)n1 [compound 145, N-((2′,4′-difluoro-3-(1-methyl-1H-pyrazol-3-yl)-[1,1′-biphenyl]-4-yl)methyl)acrylamide] | < 1000 | < 1000 |  | < 1000 |  |  |  |  |
| C=CC(=O)NCc1ccc(-c2ccc(F)cc2)nc1-c1ccn(C(F)F)n1 [compound 198, N-((2-(1-(difluoromethyl)-1H-pyrazol-3-yl)-6-(4-fluorophenyl)pyridin-3-yl)methyl)acrylamide] | < 1000 | < 1000 |  | < 1000 |  |  |  |  |
| CNS(=O)(=O)CCNc1ccc(-c2ccccc2)cc1-c1ccn(Cc2ccccc2)n1 [compound 102, 2-((3-(1-benzyl-1H-pyrazol-3-yl)-[1,1′-biphenyl]-4-yl)amino)-N-methylethane-1-sulfonamide] | < 1000 | > 10000 | > 10000 |  |  |  |  |  |
| CNS(=O)(=O)CCNc1cc(-c2ccccc2)cc(-c2ccn(Cc3cccnc3)n2)c1 [compound 052, N-methyl-2-((5-(1-(pyridin-3-ylmethyl)-1H-pyrazol-3-yl)-[1,1′-biphenyl]-3-yl)amino)ethane-1-sulfonamide] | 1000 to 20000 | > 10000 |  | > 10000 |  |  |  |  |
